Test results published in patent publication US20050026968A1, “Heterocyclic amides with anti-tuberculosis activity” (priority 2003, published 2005).
Converted amounts (≈) assume the structure as drawn. Read-outs that look alike come from different tables or passages of the source.

How the values were obtained:
[1] = system: M. tuberculosis; format: in vivo, mice; settings: in words
[2] = system: M. tuberculosis H37Ra; assay: MIC against M. tuberculosis H37Ra, micro broth dilution in microtiter plates; settings: for MIC activity compared with classical TB drugs (FIG. 1): against H37Ra, in words
[3] = Maximum Tolerated Dose (MTD), single oral dose; settings: mice, oral gavage, escalating dose 100, 300 and 500 mg/kg
Protocol: An assay for Maximum Tolerated Dose (MTD) was also utilized. […] Three different concentrations are tested, generally at 100, 300 and 500 mg/kg. The latter dose is about twice to five times the dose used for efficacy testing of the compound in mice. After 7 days of observation the mice are sacrificed and the organs are studied for any adverse effects. In case of abnormalities the organs are fixed in formalin and given for extensive pathology analysis.
Maximum tolerated dosing was performed on these selected compounds. An escalating dose of drug (100, 300 and 500 mg/kg) was given to mice by oral gavage.

[4] = molecular target: UDP-galactose mutase (Glf) (Mycobacterium tuberculosis, UniProt P9WIQ1); assay: microtitre plate based screen of Glf (enzymatic inhibition); format: biochemical; settings: in words
UDP-galactose mutase (Glf), sequence (P9WIQ1 whole entry): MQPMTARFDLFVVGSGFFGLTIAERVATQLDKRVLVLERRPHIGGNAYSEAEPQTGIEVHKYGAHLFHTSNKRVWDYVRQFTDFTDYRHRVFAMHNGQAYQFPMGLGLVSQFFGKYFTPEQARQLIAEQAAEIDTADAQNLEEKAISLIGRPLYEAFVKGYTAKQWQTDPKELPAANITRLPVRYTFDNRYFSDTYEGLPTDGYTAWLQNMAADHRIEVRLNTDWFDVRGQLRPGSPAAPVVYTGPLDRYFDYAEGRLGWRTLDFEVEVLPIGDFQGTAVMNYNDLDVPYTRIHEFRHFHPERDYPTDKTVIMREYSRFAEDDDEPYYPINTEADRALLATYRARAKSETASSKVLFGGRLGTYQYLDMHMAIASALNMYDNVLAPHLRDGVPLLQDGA

[5] = Mycobacterium tuberculosis, H37RA
[6] = Mycobacterium tuberculosis, H37RA, 168 h, read-out: TB MIC, Table 1, M. tuberculosis H37Ra, 7 days, MIC90 (>90% inhibition of growth)
[7] = Mycobacterium tuberculosis, H37RA, Table 6, M. tuberculosis H37Ra, MIC90
[8] = Mycobacterium tuberculosis, H37RA, Table 4, M. tuberculosis H37Ra, MIC90
[9] = Mycobacterium tuberculosis, H37RA, Table 5, M. tuberculosis H37Ra, MIC90

COc1ccc(CNC(=O)c2ccc([N+](=O)[O-])o2)cc1OC [Compound 23, 5-Nitro-furan-2-carboxylic acid 3,4-dimethoxy-benzylamide]
oral activity against M. tuberculosis in the mouse infection model [1]: significant oral activity
MIC [2, 5]: 200 µg/mL (≈ 653 µM)
MIC [2, 6]: 0.2 µg/mL (≈ 0.653 µM)
MIC activity compared with classical TB drugs (FIG. 1) [2]: as active as ethambutol and streptomycin
maximum tolerated dosing, observed effect [3]: no effect at the maximum dose

O=C(Nc1cccc(F)c1)c1ccc([N+](=O)[O-])o1 [Compound 12, 5-Nitro-furan-2-carboxylic acid(3-fluoro-phenyl)-amide]
maximum tolerated dosing, observed effect [3]: no effect at the maximum dose

COc1cccc(NC(=O)c2ccc([N+](=O)[O-])o2)c1 [Compound 13, 5-Nitro-furan-2-carboxylic acid(3-methoxy-phenyl)-amide]
maximum tolerated dosing, observed effect [3]: some pathology at 500 mg/kg
enzymatic inhibition of Glf [4]: best inhibitors of GIf

O=C(Nc1cccc(Cl)c1)c1ccc([N+](=O)[O-])o1 [Compound 10, 5-Nitro-furan-2-carboxylic acid(3-chloro-phenyl)-amide]
maximum tolerated dosing, observed effect [3]: no effect at the maximum dose
enzymatic inhibition of Glf [4]: best inhibitors of GIf

O=C(NCc1ccc(N2CCSCC2)cc1)c1ccc([N+](=O)[O-])o1 [Compound 92, 5-Nitro-furan-2-carboxylic acid 4-thiomorpholin-4-yl-benzylamide]
MIC [2, 7]: 0.05 µg/mL (≈ 0.144 µM)

O=C(NCc1ccc(N2CCN(Cc3ccccc3)CC2)cc1)c1ccc([N+](=O)[O-])o1 [Compound 66, 5-Nitro-furan-2-carboxy1ic acid 4-(4-benzyl-piperazin-1-yl)-benzylamide]
MIC [2, 5]: 0.006 µg/mL (≈ 0.0143 µM)
MIC [2, 8]: 0.0062 µg/mL (≈ 0.0147 µM)
MIC activity compared with classical TB drugs (FIG. 1) [2]: more active than isoniazid

CCCNC(=O)N1CCN(c2ccc(CNC(=O)c3ccc([N+](=O)[O-])o3)cc2)CC1 [Compound 105, 4-(4-{[(5-Nitro-furan-2-carbonyl)-amino]-methyl}-phenyl)-piperazine-1-carboxylic acid propylamide]
MIC [2, 7]: 0.0125 µg/mL (≈ 0.0301 µM)

CN1CCN(c2cccc(CNC(=O)c3ccc([N+](=O)[O-])o3)c2)CC1 [Compound 68, 5-Nitro-furan-2-carboxylic acid 3-(4-methyl-piperazin-1-yl)-benzylamide]
MIC [2, 8]: 3.1 µg/mL (≈ 9 µM)

CN1CCN(c2ccc(NC(=O)c3ccc([N+](=O)[O-])o3)cc2)CC1 [Compound 55, 5-Nitro-furan-2-carboxylic acid[4-(4-methyl-piperazin-1-yl)-phenyl]-amide]
MIC [2, 8]: 6.25 µg/mL (≈ 18.9 µM)

CC(C)NC(=O)CN1CCN(C(=O)c2ccc([N+](=O)[O-])o2)CC1 [Compound 78]
MIC [2, 9]: 6.25 µg/mL (≈ 19.3 µM)

O=C(Nc1cccc(N2CCC(Cc3ccccc3)CC2)c1)c1ccc([N+](=O)[O-])o1 [Compound 62, 5-Nitro-furan-2-carboxylic acid[3-(4-benzyl-piperidin-1-yl)-phenyl]-amide]
MIC [2, 8]: 12.5 µg/mL (≈ 30.8 µM)

CC[C@@H](CO)NCCN[C@@H](CC)CO [ethambutol, reference compound]
MIC90 [2, 5]: 0.78 µg/mL (≈ 3.82 µM)

CN1CCN(C(=O)c2ccc([N+](=O)[O-])o2)CC1 [Compound 76]
MIC [2, 5]: 37.5 µg/mL (≈ 157 µM)
MIC [2, 9]: 37.5 µg/mL (≈ 157 µM)

O=C(Nc1ccc(N2CCN(c3ccccn3)CC2)cc1)c1ccc([N+](=O)[O-])o1 [Compound 58, 5-Nitro-furan-2-carboxylic acid. [4-(4-pyridin-2-yl-piperazin-1-yl)-phenyl]-amide]
MIC [2, 8]: 0.4 to 0.8 µg/mL (≈ 1.02 to 2.03 µM)

COc1cccc(NC(=O)c2ccc([S+]([O-])c3ccccc3)o2)c1 (stereo not shown) [Compound 38, 5-Benzenesulfinyl-furan-2-carboxylic acid(3-methoxy-phenyl)-amide]
MIC [2, 6]: 6.25 µg/mL (≈ 18.3 µM)

CC(C)(C)OC(=O)N1CCN(c2ccc(CNC(=O)c3ccc([N+](=O)[O-])o3)cc2)CC1 [Compound 96, 4-(4-{[(5-Nitro-furan-2-carbonyl)-amino]-methyl}-phenyl)-piperazine-1-carboxylic acid tert-butyl ester]
MIC [2, 7]: 0.0002 µg/mL (≈ 0.000465 µM)

O=C(c1ccc([N+](=O)[O-])o1)N1CCC(Cc2ccccc2)CC1 [Compound 72]
MIC [2, 9]: 0.29 µg/mL (≈ 0.923 µM)

O=C(Nc1ccc(N2CCC(Cc3ccccc3)CC2)cc1)c1ccc([N+](=O)[O-])o1 [Compound 57, 5-Nitro-furan-2-carboxylic acid[4-(4-benzyl-piperidin-1-y1)-phenyl]-amide]
MIC [2, 8]: 3.1 µg/mL (≈ 7.65 µM)

COc1cccc(CNC(=O)c2ccc([N+](=O)[O-])o2)c1OC [Compound 53, 5-nitro-furan-2-carboxylic acid 2,3-dimethoxy-benzylamide]
MIC [2, 6]: 1.2 µg/mL (≈ 3.92 µM)
